Here are results for seven compounds from ChEMBL document CHEMBL2331150, “Aaptamine derivatives from the Indonesian sponge Aaptos suberitoides” (J Nat Prod, 2013).

For assay [1], the system named is L5178Y. Put plainly: Cytotoxic activity against mouse L5178Y cells by MTT assay. In kind it is functional, cell-based. (In general: Formazan colour is commonly taken as a measure of viable cells.)
Assay [2] concerns L5178Y. Briefly: Cytotoxic activity against mouse L5178Y cells assessed as growth inhibition at 10 ug/ml by MTT assay. In kind it is functional. The settings on record: read-out: GI.

The IC50 is the concentration that gives 50% inhibition. A high value points to lower potency. As to `COc1cc2ccnc3ccn4cnc1c4c23`, the IC50 with L5178Y [1] came to 13.5 µM. In addition, the inhibition of growth at 10 µg/mL in the assay with L5178Y [2] came out at 98.7%.
Turning to `COC1=Cc2ccnc3c(N)cnc(c23)C1=O`, the inhibition of growth at 10 µg/mL in the assay on L5178Y [2] came out at 64.4%.
`COc1cc2cc(C(=O)c3ccccc3)nc3c2c(c1O)NC=C3` displayed an IC50 in the assay with L5178Y [1] of 5.5 µM. Besides, in the assay on L5178Y [2], the inhibition of growth at 10 µg/mL was found to be 93.7%.
On to `COc1cc2ccnc3ccn4c(=O)cnc1c4c23`, for which, in the assay with L5178Y [2], the inhibition of growth at 10 µg/mL worked out at 0%.
As for `COc1nc2c(OC)cc3ccnc4ccn(c1=O)c2c34`, the inhibition of growth at 10 µg/mL in the assay on L5178Y [2] came out at 38.6%.
For the compound `COC1=Cc2ccnc3ccnc(c23)C1(OC)OC`, in the assay with L5178Y [2], the inhibition of growth at 10 µg/mL amounted to 51.2%.
`COc1cc2ccnc3c2c(c1OC)NC=C3` [AAPTAMINE] had an IC50 with L5178Y [1] of 8.3 µM. Also, the inhibition of growth at 10 µg/mL with L5178Y [2] was determined as 100%.
